Test [1] deals with EGFR (human), P00533 [WT].
For test [2], the target named is EGFR (human), P00533 [Inhibition of EGFR(L858RT/790M) Kinase Activity].
Another test concerns the target EGFR (human) (UniProt P00533). To be noted: hcc827.

EGFR (human), P00533 [Inhibition of EGFR(L858RT/790M) Kinase Activity], sequence (P00533 whole entry, looked up, change not shown): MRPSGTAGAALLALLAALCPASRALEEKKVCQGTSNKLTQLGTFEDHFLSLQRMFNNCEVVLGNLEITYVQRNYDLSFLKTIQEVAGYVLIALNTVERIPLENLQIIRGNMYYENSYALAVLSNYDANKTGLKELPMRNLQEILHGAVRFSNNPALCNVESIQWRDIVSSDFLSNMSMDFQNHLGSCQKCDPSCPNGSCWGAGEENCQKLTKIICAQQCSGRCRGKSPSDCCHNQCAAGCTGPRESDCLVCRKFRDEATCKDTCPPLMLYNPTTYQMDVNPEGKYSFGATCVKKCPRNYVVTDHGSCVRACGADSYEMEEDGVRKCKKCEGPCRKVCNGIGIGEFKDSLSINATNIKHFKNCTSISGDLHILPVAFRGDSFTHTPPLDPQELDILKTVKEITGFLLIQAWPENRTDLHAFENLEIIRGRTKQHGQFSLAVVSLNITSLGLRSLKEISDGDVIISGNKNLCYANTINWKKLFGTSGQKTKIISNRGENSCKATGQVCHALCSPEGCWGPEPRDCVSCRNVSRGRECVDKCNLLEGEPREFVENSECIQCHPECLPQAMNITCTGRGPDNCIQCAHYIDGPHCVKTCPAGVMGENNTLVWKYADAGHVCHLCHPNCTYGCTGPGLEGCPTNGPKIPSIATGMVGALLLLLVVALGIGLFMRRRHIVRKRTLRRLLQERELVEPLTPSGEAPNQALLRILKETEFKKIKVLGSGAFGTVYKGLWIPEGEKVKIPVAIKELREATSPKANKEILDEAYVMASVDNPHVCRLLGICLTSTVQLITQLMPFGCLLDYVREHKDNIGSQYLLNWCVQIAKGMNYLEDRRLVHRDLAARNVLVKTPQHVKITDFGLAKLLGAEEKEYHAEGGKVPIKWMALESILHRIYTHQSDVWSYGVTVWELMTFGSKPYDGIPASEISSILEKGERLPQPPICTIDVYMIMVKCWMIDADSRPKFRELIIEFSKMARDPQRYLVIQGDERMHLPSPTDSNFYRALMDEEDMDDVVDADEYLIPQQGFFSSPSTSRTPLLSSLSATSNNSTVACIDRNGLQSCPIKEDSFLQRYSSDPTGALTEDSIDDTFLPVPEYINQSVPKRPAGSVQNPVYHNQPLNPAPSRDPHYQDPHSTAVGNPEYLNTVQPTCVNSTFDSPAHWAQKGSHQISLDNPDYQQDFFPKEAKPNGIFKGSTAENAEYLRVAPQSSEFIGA
EGFR (human), P00533 [WT], sequence (P00533 whole entry, looked up): as the sequence (P00533 whole entry, looked up, change not shown) above
EGFR (human), sequence (P00533 whole entry, looked up): as the sequence (P00533 whole entry, looked up, change not shown) above

In the case of `C=CC(=O)Nc1cccc(-c2c(-c3ccccc3)oc3ncnc(N[C@H](C)c4ccccc4)c23)c1`, the concentration for half-maximal inhibition (IC50) (usually the concentration that gives 50% inhibition) in test [1] lay in the range of 101 to 900 nM; in test [2] it was 500 to 2500 nM; on EGFR (human), 1 to 99 nM. As to `CC(=O)Nc1ccc(-c2c(-c3ccccc3)oc3ncnc(N[C@H](CO)c4ccccc4)c23)cc1`, the IC50 lay in the range of 60 to 100 nM in test [1] and 100 to 300 nM on EGFR (human).

In the case of `CC[C@@H](Nc1ncnc2oc(-c3ccccc3)cc12)c1ccccc1`, the IC50 at EGFR (human) fell in the range of 301 to 999 nM. For `O=C(/C=C/CN1CCOCC1)N1CCc2c(sc3ncnc(N[C@H](CO)c4ccccc4)c23)C1`, the IC50 in test [1] was less than 59 nM; in test [2], 500 to 2500 nM; against EGFR (human), 1 to 99 nM. As to `C=CC(=O)N1CCc2c(sc3ncnc(N[C@H](COCc4cccc(C)c4)c4ccccc4)c23)C1`, the IC50 in test [1] is less than 59 nM; in test [2], 10 to 499 nM; against EGFR (human), 1 to 99 nM. In test [1], `O=C(O)[C@@H](Nc1ncnc2oc(-c3ccccc3)c(-c3ccccc3)c12)c1ccccc1` yielded an IC50 of less than 59 nM. `CN(C)C/C=C/C(=O)N1CCc2c(sc3ncnc(N[C@H](COCc4cccc(F)c4)c4ccccc4)c23)C1`: the IC50 in test [1] is less than 59 nM; in test [2], 10 to 499 nM; at EGFR (human) it was 1 to 99 nM. Turning to `O=C(/C=C/CN1CCCCC1)N1CCc2c(sc3ncnc(N[C@H](CO)c4ccccc4)c23)C1`, the values for the IC50 (in test [1]; in test [2]; against EGFR (human)) were less than 59 nM, 500 to 2500 nM and 1 to 99 nM, respectively. `CCOC(=O)/C=C/C(=O)N1CCc2c(sc3ncnc(N[C@H](CO)c4ccccc4)c23)C1` displayed an IC50 on EGFR (human) of 1 to 99 nM. In test [1], `O=C(O)[C@@H](Nc1ncnc2sc3c(c12)CCC3)c1ccccc1` showed an IC50 of 101 to 900 nM. In the case of `C=CC(=O)N1CCc2c(sc3ncnc(N[C@H](CO)c4ccccc4)c23)C1`, the IC50 in test [1] is less than 59 nM; in test [2], 10 to 499 nM; at EGFR (human), 1 to 99 nM. Take `CC(=O)OC[C@@H](Nc1ncnc2oc(-c3ccccc3)c(Br)c12)c1ccccc1`: the IC50 against EGFR (human) was 301 to 999 nM.

In turn, `O=C(O)[C@@H](Nc1ncnc2oc(-c3ccccc3)c(Br)c12)c1ccccc1` registered an IC50 in test [1] of less than 59 nM. As for `CC(C)NC/C=C/C(=O)N1CCc2c(sc3ncnc(N[C@H](C)c4ccccc4)c23)C1`, the results for the IC50 (in test [1]; on EGFR (human)) were 101 to 900 nM and 1 to 99 nM, respectively. `COC(=O)[C@@H](Nc1ncnc2oc(-c3ccccc3)c(-c3ccccc3)c12)c1ccccc1` displayed an IC50 against EGFR (human) of 301 to 999 nM. Regarding `C=CC(=O)N1CCc2c(sc3ncnc(N[C@H](CO[Si](C)(C)C(C)(C)C)c4ccccc4)c23)C1`, the IC50 in test [1] lay within 101 to 900 nM; on EGFR (human), 301 to 999 nM. Take `CC[C@@H](Nc1ncnc2sc3c(c12)CCN(C(=O)/C=C/CN(CC)CC)C3)c1ccccc1`: the IC50 in test [1] is less than 59 nM; in test [2], 500 to 2500 nM; against EGFR (human) it was 1 to 99 nM. For `CN(C)C/C=C/C(=O)N1CCc2c(sc3ncnc(N[C@H](CCO)c4ccccc4)c23)C1`, the IC50 in test [1] was less than 59 nM; at EGFR (human), 1 to 99 nM. Consider `CC(=O)OC/C=C/C(=O)N1CCc2c(sc3ncnc(N[C@H](C)c4ccccc4)c23)C1`, for which the figures for the IC50 (in test [1]; against EGFR (human)) were less than 59 nM and 1 to 99 nM, respectively. In the case of `OC[C@@H](Nc1ncnc2sc3c(c12)CCC3)c1ccccc1`, the IC50 against EGFR (human) was in the range of 301 to 999 nM. As to `C=CC(=O)Nc1ccc(-c2nc3c(N[C@H](CO)c4ccccc4)ncnc3o2)cc1`, the IC50 in test [1] was in the range of 101 to 900 nM. As for `OC[C@@H](Nc1ncnc2sc3c(c12)CCCC3)c1ccccc1`, the IC50 in test [1] fell in the range of 101 to 900 nM; on EGFR (human), 100 to 300 nM. The compound `O=C(O)/C=C\C(=O)N1CCc2c(sc3ncnc(N[C@H](CO)c4ccccc4)c23)C1` gave an IC50 in test [1] of 101 to 900 nM.

In the case of `OC[C@@H](Nc1ncnc2oc(-c3ccccc3)c(-c3ccccc3)c12)c1ccccc1`, the figures for the IC50 (in test [1]; against EGFR (human)) were 101 to 900 nM and 301 to 999 nM, respectively. Regarding `C[C@@H](Nc1ncnc2sc3c(c12)CCN(C(=O)/C=C/CN(C)C)C3)c1ccc(Br)cc1`, the IC50 in test [1] is less than 59 nM; against EGFR (human), 1 to 99 nM.

For the compound `CN(C)C/C=C/C(=O)N1CCc2c(sc3ncnc(N[C@H](COCc4ccncc4)c4ccccc4)c23)C1`, the values for the IC50 (in test [1]; at EGFR (human)) were less than 59 nM and 1 to 99 nM, respectively.

As to `CCN(C/C=C/C(=O)N1CCc2c(sc3ncnc(N[C@H](C)c4ccccc4)c23)C1)CCO`, the IC50 in test [1] is less than 59 nM; against EGFR (human), 1 to 99 nM.

For the compound `CN(C)C/C=C/C(=O)N1CCc2c(sc3ncnc(N[C@H](CO)Cc4ccccc4)c23)C1`, the IC50 was 101 to 900 nM in test [1] and 1 to 99 nM on EGFR (human).

In test [1], `OC[C@@H](Nc1ncnc2sc(-c3ccccc3)c(Cl)c12)c1ccccc1` came in with an IC50 of 101 to 900 nM.

The compound `COC[C@@H](Nc1ncnc2sc3c(c12)CCN(C(=O)/C=C/CN(C)C)C3)c1ccccc1` came in with an IC50 in test [1] of less than 59 nM.

Take `C[C@@H](Nc1ncnc2sc3c(c12)CCN(C(=O)/C=C/CNN1CCCCC1)C3)c1ccccc1`: the IC50 in test [1] is less than 59 nM; at EGFR (human), 1 to 99 nM.

These data come from the Kinase Knowledgebase extract (Sharma et al. 2016).
